Measured values from US6525001B1, “Substituted pyrimidine and pyridine herbicides” (Mid-American Commercialization Corporation, priority 1997, dated 2003).

Assays:
Assay type in all cases: in vivo
[1] = system: bedstraw (Galium aparine); assay: Test B pre-/postemergence; parameters: key: 0 is no effect; 10 is complete control; details: Postemergence
Text: (§1) Seeds of bedstraw (Galium aparine), blackgrass (Alopecurus myosuroides), broadleaf signalgrass (Brachiaria decumbens), cocklebur (Xanthium strumarium), corn (Zea mays), crabgrass (Digitaria sanguinalis), giant foxtail (Setaria faberii), lambsquarters (Chenopodium album), momingglory (Ipomoea hederacea), pigweed (Amaranthus retroflexus), rape (Brassica napus), soybean (Glycine max), sugar beet (Beta vulgaris), velvetleaf (Abutilon theophrasti), wheat (Triticum aestivum), wild oat (Avena fatua) and purple nutsedge (Cyperus rotundus) tubers were planted and treated preemergence with test chemicals formulated in a non-phytotoxic solvent mixture which included a surfactant.
(§2) At the same time, these crop and weed species were also treated with postemergence applications of test chemicals formulated in the same manner. Plants ranged in height from 2 to 18 cm (1- to 4-leaf stage) for postemergence treatments. Plant species in the flood test consisted of rice (Oryza sativa), smallflower flatsedge (Cyperus difformis), duck salad (Heteranthera limosa) and bamyardgrass (Echinochloa crus-galli) grown to the 2-leaf stage for testing. Treated plants and controls were maintained in a greenhouse for twelve to sixteen days, after which all species were compared to controls and visually evaluated. Plant response ratings, summarized in Table B, are based on a scale of 0 to 10 where 0 is no effect and 10 is complete control. A dash (−) response means no test result.

[2] = system: blackgrass (Alopecurus myosuroides); assay: Test B pre-/postemergence; parameters: key: 0 is no effect; 10 is complete control; details: for Blackgrass plant response rating: Preemergence
Text: as §1, §2

[3] = system: broadleaf signalgrass (Brachiaria decumbens); assay: Test B pre-/postemergence; parameters: key: 0 is no effect; 10 is complete control; details: for B. signalgrass plant response rating: Preemergence
Text: as §1, §2

[4] = system: cocklebur (Xanthium strumarium); assay: Test B pre-/postemergence; parameters: key: 0 is no effect; 10 is complete control; details: for Cocklebur plant response rating: Preemergence
Text: as §1, §2

corn (Zea mays) = assay: Test B pre-/postemergence; parameters: key: 0 is no effect; 10 is complete control; details: for Corn plant response rating: Preemergence
Text: as §1, §2

[5] = system: crabgrass (Digitaria sanguinalis); assay: Test B pre-/postemergence; parameters: key: 0 is no effect; 10 is complete control; details: for Crabgrass plant response rating: Preemergence
Text: as §1, §2

[6] = system: giant foxtail (Setaria faberii); assay: Test B pre-/postemergence; parameters: key: 0 is no effect; 10 is complete control
Text: as §1, §2

[7] = system: momingglory (Ipomoea hederacea); assay: Test B pre-/postemergence; parameters: key: 0 is no effect; 10 is complete control
Text: as §1, §2

[8] = system: pigweed (Amaranthus retroflexus); assay: Test B pre-/postemergence; parameters: key: 0 is no effect; 10 is complete control
Text: as §1, §2

[9] = system: purple nutsedge (Cyperus rotundus); assay: Test B pre-/postemergence; parameters: key: 0 is no effect; 10 is complete control
Text: as §1, §2

rape (Brassica napus) = assay: Test B pre-/postemergence; parameters: key: 0 is no effect; 10 is complete control
Text: as §1, §2

soybean (Glycine max) = assay: Test B pre-/postemergence; parameters: key: 0 is no effect; 10 is complete control
Text: as §1, §2

[10] = system: sugar beet (Beta vulgaris); assay: Test B pre-/postemergence; parameters: key: 0 is no effect; 10 is complete control
Text: as §1, §2

[11] = system: velvetleaf (Abutilon theophrasti); assay: Test B pre-/postemergence; parameters: key: 0 is no effect; 10 is complete control
Text: as §1, §2

[12] = system: wheat (Triticum aestivum); assay: Test B pre-/postemergence; parameters: key: 0 is no effect; 10 is complete control
Text: as §1, §2

wild oat (Avena fatua) = assay: Test B pre-/postemergence; parameters: key: 0 is no effect; 10 is complete control
Text: as §1, §2

[13] = system: bamyardgrass (Echinochloa crus-galli); assay: Test B flood test
In short: (§3)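 Each value is a visual injury score relative to controls, with 10 meaning complete control and 0 no effect. Evaluation took place twelve to sixteen days after the 2-leaf-stage plants were treated and kept in the greenhouse.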

[14] = system: duck salad (Heteranthera limosa); assay: Test B flood test
In short: as §3

rice (Oryza sativa) = assay: Test B flood test
In short: as §3

[15] = system: smallflower flatsedge (Cyperus difformis); assay: Test B flood test
In short: as §3

[16] = Rate 250 g/ha, Postemergence (so in the source)
[17] = Rate 62 g/ha, Postemergence (flood test)
[18] = Rate 125 g/ha, Postemergence, flood test
[19] = Rate 250 g/ha, Postemergence (flood test species)
[20] = Rate 125 g/ha, Postemergence section (flood test species)

Cc1cnc(-c2ccc(F)c(Cl)c2)nc1Cc1cccc(C#N)c1 [Compound 40]
Plant response rating, Bedstraw ([1]; Rate 62 g/ha): 4 | Plant response rating, Bedstraw ([1]; Rate 125 g/ha): 4 | Plant response rating, Bedstraw ([1]; Rate 250 g/ha): 6 | Plant response rating, Blackgrass ([2]; Rate 62 g/ha, Postemergence): 2 | Blackgrass plant response rating ([2]; Rate 62 g/ha): 0 | Plant response rating, Blackgrass ([2]; Rate 125 g/ha, Postemergence): 2 | Blackgrass plant response rating ([2]; Rate 125 g/ha): 1 | Plant response rating, Blackgrass ([2]; Rate 250 g/ha, Postemergence): 2 | Plant response rating, Blackgrass [2, 16]: 2 | Plant response rating, B. signalgrass ([3]; Rate 62 g/ha, Postemergence): 1 | B. signalgrass plant response rating ([3]; Rate 62 g/ha): 0 | Plant response rating, B. signalgrass ([3]; Rate 125 g/ha, Postemergence): 1 | B. signalgrass plant response rating ([3]; Rate 125 g/ha): 0 | Plant response rating, B. signalgrass ([3]; Rate 250 g/ha, Postemergence): 1 | Plant response rating, B. signalgrass ([3]; Rate 250 g/ha, Postemergence as printed in head r139 (second section for compounds 26-50)): 1 | Plant response rating, Cocklebur ([4]; Rate 62 g/ha, Postemergence): 5 | Cocklebur plant response rating ([4]; Rate 62 g/ha): 0 | Plant response rating, Cocklebur ([4]; Rate 125 g/ha, Postemergence): 2 | Cocklebur plant response rating ([4]; Rate 125 g/ha): 0 | Plant response rating, Cocklebur ([4]; Rate 250 g/ha, Postemergence): 5 | Plant response rating, Cocklebur [4, 16]: 0 | Plant response rating, Corn (corn (Zea mays); Rate 62 g/ha, Postemergence): 1 | Corn plant response rating (corn (Zea mays); Rate 62 g/ha): 0 | Plant response rating, Corn (corn (Zea mays); Rate 125 g/ha, Postemergence): 1 | Corn plant response rating (corn (Zea mays); Rate 125 g/ha): 0 | Plant response rating, Corn (corn (Zea mays); Rate 250 g/ha, Postemergence): 1 | Plant response rating, Corn (corn (Zea mays); [16]): 0 | Plant response rating, Crabgrass ([5]; Rate 62 g/ha, Postemergence): 1 | Crabgrass plant response rating ([5]; Rate 62 g/ha): 0 | Plant response rating, Crabgrass ([5]; Rate 125 g/ha, Postemergence): 1 | Crabgrass plant response rating ([5]; Rate 125 g/ha): 0 | Plant response rating, Crabgrass ([5]; Rate 250 g/ha, Postemergence): 3 | Plant response rating, Crabgrass [5, 16]: 0 | Plant response rating, Giant foxtail ([6]; Rate 62 g/ha, Postemergence): 0 | Giant foxtail plant response rating ([6]; Rate 62 g/ha, Preemergence): 0 | Giant foxtail plant response rating ([6]; Rate 125 g/ha, Postemergence): 0 | Giant foxtail plant response rating ([6]; Rate 125 g/ha, Preemergence): 1 | Plant response rating, Giant foxtail ([6]; Rate 250 g/ha, Postemergence): 2 | Plant response rating, Giant foxtail [6, 16]: 3 | Plant response rating, Morningglory ([7]; Rate 62 g/ha, Postemergence): 2 | Morningglory plant response rating ([7]; Rate 62 g/ha, Preemergence): 0 | Morningglory plant response rating ([7]; Rate 125 g/ha, Postemergence): 2 | Morningglory plant response rating ([7]; Rate 125 g/ha, Preemergence): 1 | Plant response rating, Morningglory ([7]; Rate 250 g/ha, Postemergence): 5 | Plant response rating, Morningglory [7, 16]: 2 | Plant response rating, Redroot pigweed ([8]; Rate 62 g/ha, Postemergence): 2 | Redroot pigweed plant response rating ([8]; Rate 62 g/ha, Preemergence): 0 | Redroot pigweed plant response rating ([8]; Rate 125 g/ha, Postemergence): 3 | Redroot pigweed plant response rating ([8]; Rate 125 g/ha, Preemergence): 1 | Plant response rating, Redroot pigweed ([8]; Rate 250 g/ha, Postemergence): 6 | Plant response rating, Redroot pigweed [8, 16]: 2 | Nutsedge plant response rating ([9]; Rate 62 g/ha, Preemergence): 0 | Plant response rating, Nutsedge [9, 16]: 0 | Plant response rating, Rape (rape (Brassica napus); Rate 62 g/ha, Postemergence): 6 | Rape plant response rating (rape (Brassica napus); Rate 62 g/ha, Preemergence): 0 | Rape plant response rating (rape (Brassica napus); Rate 125 g/ha, Postemergence): 6 | Rape plant response rating (rape (Brassica napus); Rate 125 g/ha, Preemergence): 1 | Plant response rating, Rape (rape (Brassica napus); Rate 250 g/ha, Postemergence): 8 | Plant response rating, Rape (rape (Brassica napus); [16]): 2 | Plant response rating, Soybean (soybean (Glycine max); Rate 62 g/ha, Postemergence): 2 | Soybean plant response rating (soybean (Glycine max); Rate 62 g/ha, Preemergence): 0 | Soybean plant response rating (soybean (Glycine max); Rate 125 g/ha, Postemergence): 2 | Plant response rating, Soybean (soybean (Glycine max); Rate 125 g/ha, Preemergence): 0 | Plant response rating, Soybean (soybean (Glycine max); Rate 250 g/ha, Postemergence): 2 | Plant response rating, Soybean (soybean (Glycine max); [16]): 0 | Plant response rating, Sugarbeets ([10]; Rate 62 g/ha, Postemergence): 10 | Sugarbeets plant response rating ([10]; Rate 62 g/ha, Preemergence): 2 | Sugarbeets plant response rating ([10]; Rate 125 g/ha, Postemergence): 10 | Plant response rating, Sugarbeets ([10]; Rate 125 g/ha, Preemergence): 6 | Plant response rating, Sugarbeets ([10]; Rate 250 g/ha, Postemergence): 10 | Plant response rating, Sugarbeets [10, 16]: 6 | Plant response rating, Velvetleaf ([11]; Rate 62 g/ha, Postemergence): 1 | Velvetleaf plant response rating ([11]; Rate 62 g/ha, Preemergence): 0 | Velvetleaf plant response rating ([11]; Rate 125 g/ha, Postemergence): 2 | Plant response rating, Velvetleaf ([11]; Rate 125 g/ha, Preemergence): 0 | Plant response rating, Velvetleaf ([11]; Rate 250 g/ha, Postemergence): 2 | Plant response rating, Velvetleaf [11, 16]: 1 | Wheat plant response rating ([12]; Rate 62 g/ha, Postemergence): 1 | Wheat plant response rating ([12]; Rate 62 g/ha, Preemergence): 0 | Wheat plant response rating ([12]; Rate 125 g/ha, Postemergence): 1 | Plant response rating, Wheat ([12]; Rate 125 g/ha, Preemergence): 0 | Plant response rating, Wheat ([12]; Rate 250 g/ha, Postemergence): 2 | Plant response rating, Wheat [12, 16]: 0 | Wild oats plant response rating (wild oat (Avena fatua); Rate 62 g/ha, Postemergence): 0 | Wild oats plant response rating (wild oat (Avena fatua); Rate 62 g/ha, Preemergence): 0 | Wild oats plant response rating (wild oat (Avena fatua); Rate 125 g/ha, Postemergence): 0 | Plant response rating, Wild oats (wild oat (Avena fatua); Rate 125 g/ha, Preemergence): 0 | Plant response rating, Wild oats (wild oat (Avena fatua); Rate 250 g/ha, Postemergence): 1 | Plant response rating, Wild oats (wild oat (Avena fatua); [16]): 1 | Plant response rating, Barnyardgrass [13, 17]: 2 | Plant response rating, Barnyardgrass [13, 18]: 2 | Plant response rating, Barnyardgrass [13, 19]: 2 | Plant response rating, Ducksalad [14, 17]: 1 | Plant response rating, Ducksalad [14, 18]: 5 | Plant response rating, Ducksalad [14, 19]: 7 | Plant response rating, Rice (rice (Oryza sativa); [17]): 1 | Rice plant response rating (rice (Oryza sativa); [20]): 1 | Plant response rating, Rice (rice (Oryza sativa); [19]): 2 | Plant response rating, S. Flatsedge [15, 17]: 2 | S. Flatsedge plant response rating [15, 20]: 4 | Plant response rating, S. Flatsedge [15, 19]: 5
